# Columns and labels:
# [1] = system: CLOCK:BMAL1-driven transcription of Per2:luciferase; assay: Per2:luciferase transcriptional reporter assay in HEK293 cells; assay type: cell-based
# Method: Luciferase Assays. HEK293 and HepG2 cells were transiently transfected with Clock (100 ng), Bmal1 (100 ng), firefly luciferase reporter (100 ng), and renilla luciferase reporter (control for transfection efficiency) (4 ng) using Lipofectamine 2000. Increasing doses of Sirt1 (200-800 ng), resveratrol (20, 50, 100 uM), nicotinamide (1, 5, 10 mM), Ex-527 (0.1 or 1.0 uM), or FK866 (10 nM) were added as indicated. 48 hrs following transfection, cells were lysed and luciferase activity monitored using the Dual-Luciferase® Reporter Assay System (Promega). Firefly luciferase values were normalized to renilla luciferase values, and a minimum of 3 independent experiments was performed in triplicate for each assay.
# SIRT1 target genes = assay: mRNA expression of SIRT1 target genes in primary hepatocytes (quantitative real-time PCR); assay type: cell-based, mice; details: 200 nM FK866 for 24 hours (FIG. 2B)
# Method: (§1) Quantitative Real-Time PCR. Total RNA was extracted from frozen tissue with Tri Reagent (Molecular Research Center, Inc.). cDNA was synthesized using the High Capacity cDNA Reverse Transcription kit (Applied Biosystems). Real-time PCR was performed and analyzed using an Applied Biosystems 7900HT Fast Real-Time PCR System (Applied Biosystems). PCR conditions were: 10 min at 95° C., then 35 cycles of 10 s at 95° C., 15 s at 60° C. Relative expression levels (normalized to Gapdh) were determined using the comparative CT method.
# (§2) Primary Hepatocyte Isolation and Adenoviral Infection.
# [2] = system: NAMPT-mediated NAD+ biosynthesis; details: primary hepatocytes, 200 nM FK866 for 24 hours (FIG. 2A)
# Method: NAD^+Measurements. NAD^+ levels were measured using HPLC with Waters 515 pumps and a 2487 detector with a Supelco LC-18-T column (15 cm×4.6 cm). Briefly, frozen liver tissues or cultured cells were extracted in 1M perchloric acid and neutralized in 3M K2CO3 on ice. After centrifugation, the supernatant was mixed with Buffer A (50 mM K2PO4/KHPO4, pH 7.0) and loaded on to the column. The HPLC was run at a flow rate of 1 ml/min with 100% Buffer A from 0-5 min, a linear gradient to 95% Buffer N5% Buffer B (100% methanol) from 5-6 min, 95% Buffer N5% Buffer B from 6-11 min, a linear gradient to 85% Buffer N15% Buffer B from 11-13 min, 85% Buffer A/15% Buffer B from 13-23 min, and a linear gradient to 100% Buffer A from 23-24 min. NAD^+ eluted as a sharp peak at 15 min and was quantitated based on the peak area compared to a standard curve and normalized to tissue weight of frozen liver tissues or to protein content of cultured cells.
# Per2 RNA oscillation = Per2 RNA oscillation in primary hepatocytes following serum shock; assay type: cell-based, mice; details: primary hepatocytes after serum shock, 200 nM FK866 added at t=2 (FIG. 3B); vehicle 2.2 day
# Method: as §1, §2
# Synchronization of Primary Hepatocytes by Serum Shock. Hepatocytes were synchronized by changing to media containing 50% horse serum (t=0) for 2 hrs and then maintaining cells in media containing 0.5% FBS (A. Balsalobre, F. Damiola, U. Schibler, Cell 93, 929 (1998)). For FK866 application, 200 nM FK866 was added to the culture at t=2. RNA samples were collected at the indicated time points, and the expression of clock genes was examined by quantitative real-time PCR as described above. Damping rate was assessed as the decay rate of the oscillations of averaged Per2 RNA abundance assuming exponential decay.
smiles,measurement,setting,value
NC(=O)C1CCCc2c1[nH]c1ccc(Cl)cc21 (stereo not drawn) [EX-527],Per2:luciferase transcription,[1]; Ex-527 0.1 and 1.0 uM (FIG. 6C),showed a similar trend
O=C(/C=C/c1cccnc1)NCCCCC1CCN(C(=O)c2ccccc2)CC1 [FK866],reduction in mRNA expression level of G6 Pase,SIRT1 target genes,~30%
same,reduction in mRNA expression level of Pepck,SIRT1 target genes,~30%
same,NAD+ biosynthesis (NAD+ levels),[2],significantly inhibited
same,CLOCK:BMAL1-driven transcription of the Per2:luciferase reporter,"[1]; HEK293 cells, 10 nM FK866 for 24 or 48 hours (FIG. 2C)",significant increase
same,SIRT1-dependent suppression of CLOCK:BMAL1-mediated transcription,[1]; Sirt1 (800 ng) and 10 nM FK866 for 48 hours (FIG. 2E),abrogated
same,damping rate of Per2 oscillation,Per2 RNA oscillation,5.3 days
"NC(=O)c1cccnc1 [nicotinamide, 3-pyridinecarboxamide]",Per2:luciferase transcription,"[1]; increasing doses of nicotinamide 1, 5 and 10 mM (FIG. 6B)",activated
Oc1ccc(C=Cc2cc(O)cc(O)c2)cc1 [resveratrol],Per2:luciferase transcription,"[1]; increasing doses of resveratrol 20, 50 and 100 uM (FIG. 6A)",inhibited

# Reference: US20110123510A1, “Methods of Affecting Biological Function Through Circadian Clock Feedback Cycle by NAMPT-Mediated NAD+ Biosynthesis” (WASHINGTON UNIVERSITY, priority 2009, published 2011)
